Assay results published in article PMC11062899, “De novo development of small cyclic peptides that are orally bioavailable” (Nature Chemical Biology, 2023).
“And” between values parts separate entries of the source, which are not always exact repeats. Equal entries are not always repeated. Where two headings read alike, the source gives them in different places.

What was measured:
[1] = Passive artificial membrane permeability (PAMPA);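 on Permeability% Average: top well sample relative to theoretical equilibrium sample by TIC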
porcine pepsin = target: T1, porcine pepsin (Sus scrofa, UniProt P00791); experiment: Peptide stability in simulated gastric fluid (SGF); assay type: in vitro ADME; details: pig, simulated gi fluid; 8 h, 37 °C, pH 1.2; read-out: Proteolytic stability: SGF (8 h) % remaining
T1 construct: 0.32 g of porcine pepsin (Sigma-Aldrich, P7125) was dissolved under gentle agitation; purchased Sigma-Aldrich P7125
T1 sequence (P00791 60-385): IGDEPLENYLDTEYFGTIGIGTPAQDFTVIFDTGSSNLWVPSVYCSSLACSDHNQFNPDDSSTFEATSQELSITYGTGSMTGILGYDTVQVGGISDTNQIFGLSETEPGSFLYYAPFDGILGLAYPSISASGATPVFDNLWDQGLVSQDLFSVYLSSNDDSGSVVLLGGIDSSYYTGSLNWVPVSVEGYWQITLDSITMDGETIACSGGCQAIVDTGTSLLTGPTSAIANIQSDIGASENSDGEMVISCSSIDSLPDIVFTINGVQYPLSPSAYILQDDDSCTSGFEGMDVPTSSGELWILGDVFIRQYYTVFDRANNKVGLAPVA
Summary of the method: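 Peptide from a 1 mM DMSO stock was added to fluid pre-warmed at 37 °C. SGF was pH 1.2 NaCl with porcine pepsin (0.32 g per 100 ml), and SIF was pH 6.8 potassium phosphate with porcine pancreatin (1 g per 100 ml). Supernatant peptide was quantified by LC–MS, with residual expressed as T1/T0.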

human α-thrombin = human α-thrombin (Homo sapiens, UniProt P00734); experiment: Protease inhibition, Ki for human α-thrombin (fluorogenic substrate Z-Gly-Gly-Arg-AMC); assay type: biochemical; details: for slope normalized to DMSO, human alpha thrombin inhibition: replicates R1-R3
Summary of the method: (§1)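 Ki derived through Cheng–Prusoff from IC50s (four-parameter logistic fit) against activity of peptide-free controls. Product fluorescence was read every 3 min over 30 min at 25 °C, substrate Z-Gly-Gly-Arg-AMC at 50 μM. Enzyme was 2 nM human or 3 nM rat α-thrombin, pH 7.4 buffer.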

[2] = Metabolic stability in rat liver microsomes (RLMs); details: for TIC value of compound, metabolic stability RLM: replicates R1-R3; for microsomal CLint / half-life: rat, microsomes
rat α-thrombin = target: T2, rat α-thrombin (Rattus norvegicus, UniProt P18292); experiment: Protease inhibition, Ki for rat α-thrombin (fluorogenic substrate Z-Gly-Gly-Arg-AMC); assay type: biochemical; details: for slope normalized to DMSO, rat alpha thrombin inhibition: replicates R1-R3
T2 construct: rat α-thrombin (Molecular Innovations) were used at final concentrations of 2 nM and 3 nM; purchased Molecular Innovations
Summary of the method: as §1

- PAMPA permeability: % permeability ([1]; 50 μM, 12–18 h, acceptor concentration relative to equilibrium): 55 ± 8%
- Permeability% (single replicates R1–R3) ([1]; 50 μM, 12 h (Fig. 6d)): 49.41% and 50.43% and 63.83%
- Permeability% Average ([1]; 50 μM, 12 h (Fig. 6d)): 54.6%
- Papp at 50 μM ([1]; PAMPA, pH 7.4): 7.76 ×10⁻⁶ cm/s
- remaining at 8 h (porcine pepsin): 96 ± 12%
- Ki (human α-thrombin; average of R1-R3, read-out: Ki Average, human alpha thrombin inhibition): 65.1 nM
- IC50 (human α-thrombin; individual replicates R1-R3, read-out: IC50, human alpha thrombin inhibition): 94.1 nM and 79.8 nM and 79.7 nM
- slope normalized to DMSO, human alpha thrombin inhibition (human α-thrombin; peptide 1.00E+02 uM): 10.4 and 9.8 and 9.9
- slope normalized to DMSO, human alpha thrombin inhibition (human α-thrombin; peptide 1.19E-05 uM): 103.8 and 104.1 and 105.5
- slope normalized to DMSO, human alpha thrombin inhibition (human α-thrombin; peptide 1.22E-02 uM): 87.6 and 86.9 (2×)
- slope normalized to DMSO, human alpha thrombin inhibition (human α-thrombin; peptide 1.25E+01 uM): 5.3 and 12.2 and 12.4
- slope normalized to DMSO, human alpha thrombin inhibition (human α-thrombin; peptide 1.53E-03 uM): 101.5 and 101.1 and 102.6
- slope normalized to DMSO, human alpha thrombin inhibition (human α-thrombin; peptide 1.56E+00 uM): 20.2 and 17.9 and 18.1
- slope normalized to DMSO, human alpha thrombin inhibition (human α-thrombin; peptide 1.91E-04 uM): 103.2 and 104.0 and 103.7
- slope normalized to DMSO, human alpha thrombin inhibition (human α-thrombin; peptide 1.95E-01 uM): 45.4 and 43.2 and 43.8
- slope normalized to DMSO, human alpha thrombin inhibition (human α-thrombin; peptide 2.38E-05 uM): 104.8 and 104.2 and 105.6
- slope normalized to DMSO, human alpha thrombin inhibition (human α-thrombin; peptide 2.44E-02 uM): 80.1 and 79.6 and 79.3
- slope normalized to DMSO, human alpha thrombin inhibition (human α-thrombin; peptide 2.50E+01 uM): 11.9 and 11.0 and 10.5
- slope normalized to DMSO, human alpha thrombin inhibition (human α-thrombin; peptide 3.05E-03 uM): 97.6 and 98.1 and 98.6
- slope normalized to DMSO, human alpha thrombin inhibition (human α-thrombin; peptide 3.12E+00 uM): 16.0 and 13.3 and 14.6
- slope normalized to DMSO, human alpha thrombin inhibition (human α-thrombin; peptide 3.81E-04 uM): 102.7 and 102.9 and 102.6
- slope normalized to DMSO, human alpha thrombin inhibition (human α-thrombin; peptide 3.91E-01 uM): 32.0 and 29.5 and 28.9
- slope normalized to DMSO, human alpha thrombin inhibition (human α-thrombin; peptide 4.77E-05 uM): 102.3 and 105.2 and 103.4
- slope normalized to DMSO, human alpha thrombin inhibition (human α-thrombin; peptide 4.88E-02 uM): 66.2 and 64.4 and 64.1
- slope normalized to DMSO, human alpha thrombin inhibition (human α-thrombin; peptide 5.00E+01 uM): 11.3 and 10.4 and 8.0
- slope normalized to DMSO, human alpha thrombin inhibition (human α-thrombin; peptide 6.10E-03 uM): 94.3 and 94.6 and 94.4
- slope normalized to DMSO, human alpha thrombin inhibition (human α-thrombin; peptide 6.25E+00 uM): 14.8 and 13.5 (2×)
- slope normalized to DMSO, human alpha thrombin inhibition (human α-thrombin; peptide 7.63E-04 uM): 99.9 and 102.3 and 103.3
- slope normalized to DMSO, human alpha thrombin inhibition (human α-thrombin; peptide 7.81E-01 uM): 26.0 and 24.0 (2×)
- slope normalized to DMSO, human alpha thrombin inhibition (human α-thrombin; peptide 9.54E-05 uM): 102.8 and 104.6 and 103.3
- slope normalized to DMSO, human alpha thrombin inhibition (human α-thrombin; peptide 9.77E-02 uM): 53.1 and 52.5
- TIC value of compound, metabolic stability RLM ([2]; 0 min): 14110188 (2×) and 12352514
- TIC value of compound, metabolic stability RLM ([2]; 5 min): 13677902 and 11194388 and 11188088
- TIC value of compound, metabolic stability RLM ([2]; 15 min): 10674204 and 7516980 and 9028625
- TIC value of compound, metabolic stability RLM ([2]; 30 min): 7710068 and 5736371 and 6256299
- TIC value of compound, metabolic stability RLM ([2]; 60 min): 3465219 and 2801334 and 3774480
- Half Life, RLM ([2]; individual replicates R1-R3): 33.04 min and 32.99 min
- microsomal CLint ([2]; CL, RLM, individual replicates R1-R3): 41.5 µL/min/mg
- half-life ([2]; Half Life, RLM, individual replicates R1-R3): 33.4 min
- microsomal CLint ([2]; Metabolic stability: RLM CL (ul/min/mg), RLMs, mean and SD, three measurements): 43 ± 1 µL/min/mg
- half-life ([2]; pH 7.4, Metabolic stability: Half life T1/2 (min), RLMs, mean and SD, three measurements): 33 ± 1 min
- IC50 (rat α-thrombin; individual replicates R1-R3, read-out: IC50, rat alpha thrombin inhibition): 18.6 nM and 18.8 nM and 18.2 nM
- Ki (rat α-thrombin; individual replicates R1-R3, read-out: Ki, rat alpha thrombin inhibition): 10.3 nM and 10.4 nM and 10.1 nM
- slope normalized to DMSO, rat alpha thrombin inhibition (rat α-thrombin; peptide 1.00E+02 uM): 8.3 and 7.3 and 7.2
- slope normalized to DMSO, rat alpha thrombin inhibition (rat α-thrombin; peptide 1.19E-05 uM): 99.4 and 100.3 and 100.6
- slope normalized to DMSO, rat alpha thrombin inhibition (rat α-thrombin; peptide 1.22E-02 uM): 60.3 and 60.4 and 59.6
- slope normalized to DMSO, rat alpha thrombin inhibition (rat α-thrombin; peptide 1.25E+01 uM): 5.7 and 8.0 and 8.3
- slope normalized to DMSO, rat alpha thrombin inhibition (rat α-thrombin; peptide 1.53E-03 uM): 88.8 and 87.9 and 87.4
- slope normalized to DMSO, rat alpha thrombin inhibition (rat α-thrombin; peptide 1.56E+00 uM): 10.8 and 10.2 and 9.8
- slope normalized to DMSO, rat alpha thrombin inhibition (rat α-thrombin; peptide 1.91E-04 uM): 94.6 and 95.0 and 96.1
- slope normalized to DMSO, rat alpha thrombin inhibition (rat α-thrombin; peptide 1.95E-01 uM): 21.1 and 20.0 and 19.8
- slope normalized to DMSO, rat alpha thrombin inhibition (rat α-thrombin; peptide 2.38E-05 uM): 96.3 and 97.7 and 98.1
- slope normalized to DMSO, rat alpha thrombin inhibition (rat α-thrombin; peptide 2.44E-02 uM): 48.7 and 49.3 and 48.8
- slope normalized to DMSO, rat alpha thrombin inhibition (rat α-thrombin; peptide 2.50E+01 uM): 12.0 and 7.7 and 6.9
- slope normalized to DMSO, rat alpha thrombin inhibition (rat α-thrombin; peptide 3.05E-03 uM): 80.9 and 81.1 and 81.9
- slope normalized to DMSO, rat alpha thrombin inhibition (rat α-thrombin; peptide 3.12E+00 uM): 9.6 and 9.4 and 8.9
- slope normalized to DMSO, rat alpha thrombin inhibition (rat α-thrombin; peptide 3.81E-04 uM): 92.9 and 94.7 and 94.0
- slope normalized to DMSO, rat alpha thrombin inhibition (rat α-thrombin; peptide 3.91E-01 uM): 15.0 and 14.0 and 13.6
- slope normalized to DMSO, rat alpha thrombin inhibition (rat α-thrombin; peptide 4.77E-05 uM): 95.4 and 96.4 and 96.6
- slope normalized to DMSO, rat alpha thrombin inhibition (rat α-thrombin; peptide 4.88E-02 uM): 33.7 and 33.6 and 33.1
- slope normalized to DMSO, rat alpha thrombin inhibition (rat α-thrombin; peptide 5.00E+01 uM): 7.6 and 7.2 and 7.4
- slope normalized to DMSO, rat alpha thrombin inhibition (rat α-thrombin; peptide 6.10E-03 uM): 72.8 and 73.4 and 73.0
- slope normalized to DMSO, rat alpha thrombin inhibition (rat α-thrombin; peptide 6.25E+00 uM): 10.1 and 8.5 and 8.3
- slope normalized to DMSO, rat alpha thrombin inhibition (rat α-thrombin; peptide 7.63E-04 uM): 91.2 and 92.2 and 91.3
- slope normalized to DMSO, rat alpha thrombin inhibition (rat α-thrombin; peptide 7.81E-01 uM): 13.0 and 11.7 and 11.5
- slope normalized to DMSO, rat alpha thrombin inhibition (rat α-thrombin; peptide 9.54E-05 uM): 95.8 and 95.1 and 95.6
- slope normalized to DMSO, rat alpha thrombin inhibition (rat α-thrombin; peptide 9.77E-02 uM): 26.6 and 25.4 and 25.1
SMILES: O=C1C[C@H]2CCCN2C(=O)[C@H](Cc2ccccc2)NC(=O)[C@@H](NC(=O)c2ccc(Cl)cc2)CCC=CCCCCN1 (mixture of isomers) [peptide 46]
- Ki (human α-thrombin; individual replicates R1-R3, read-out: Ki, human alpha thrombin inhibition): 72.5 nM (2×) and 61.5 nM (2×) and 61.4 nM (2×)
- CL, RLM ([2]; individual replicates R1-R3): 41.9492 ul/min/mg protein and 42.0127 ul/min/mg protein
